The source of these data is patent US20230002327A1, “SMALL-MOLECULE REGULATOR OF TLR8” (TSINGHUA UNIVERSITY, priority 2019, published 2023).

For experiment [1], the target named is T1, TLR7 (Homo sapiens, UniProt Q9NYK1).
T1 construct: host or cells: HEK-Blue hTLR7 (HEK293-derived SEAP reporter cells)
T1 sequence (Q9NYK1 27-1049): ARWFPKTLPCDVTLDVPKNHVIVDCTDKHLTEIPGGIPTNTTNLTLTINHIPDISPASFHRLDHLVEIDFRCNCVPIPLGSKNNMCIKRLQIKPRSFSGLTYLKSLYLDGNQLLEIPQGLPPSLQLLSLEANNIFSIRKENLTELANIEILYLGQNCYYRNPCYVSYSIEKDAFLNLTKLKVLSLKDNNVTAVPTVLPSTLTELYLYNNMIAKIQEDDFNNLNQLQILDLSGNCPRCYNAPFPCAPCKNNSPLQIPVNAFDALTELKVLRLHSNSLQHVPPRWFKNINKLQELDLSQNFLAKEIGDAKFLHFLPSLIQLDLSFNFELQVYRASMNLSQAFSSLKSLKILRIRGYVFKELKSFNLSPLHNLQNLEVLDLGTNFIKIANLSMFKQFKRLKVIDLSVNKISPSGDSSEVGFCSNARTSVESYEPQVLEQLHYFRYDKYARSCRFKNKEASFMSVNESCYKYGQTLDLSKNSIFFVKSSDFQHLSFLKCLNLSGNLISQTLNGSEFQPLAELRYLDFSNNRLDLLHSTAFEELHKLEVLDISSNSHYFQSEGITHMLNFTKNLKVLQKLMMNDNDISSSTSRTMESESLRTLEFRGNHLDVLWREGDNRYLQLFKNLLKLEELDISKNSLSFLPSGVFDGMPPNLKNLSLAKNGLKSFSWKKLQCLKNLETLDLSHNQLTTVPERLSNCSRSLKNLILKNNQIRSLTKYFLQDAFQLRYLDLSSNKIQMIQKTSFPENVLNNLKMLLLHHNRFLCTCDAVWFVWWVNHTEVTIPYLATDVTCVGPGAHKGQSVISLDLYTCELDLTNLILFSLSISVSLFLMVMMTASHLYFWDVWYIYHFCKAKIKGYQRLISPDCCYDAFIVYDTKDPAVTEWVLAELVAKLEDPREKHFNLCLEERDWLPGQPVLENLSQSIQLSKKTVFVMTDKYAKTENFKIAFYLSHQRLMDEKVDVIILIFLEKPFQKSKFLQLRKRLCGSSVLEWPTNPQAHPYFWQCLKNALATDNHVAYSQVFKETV
Nature of the experiment: Inhibition of R848-induced signaling in HEK-Blue hTLR7 cell line (Quanti-Blue). It counts as cell-based. In a few lines:
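HEK-Blue hTLR8 or hTLR7 cells in serum-free DMEM were co-treated for 24 h at 37 °C with compound plus 1 μg/mL R848, or 5 μg/mL ssRNA40/LyoVec or ORN06/LyoVec. SEAP in the supernatant was read with Quanti-Blue at OD620. % inhibition was taken relative to ligand-only and untreated cells, and IC50 was fitted.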

Experiment [2] has as its target T2, TLR8 (Homo sapiens, UniProt Q9NR97).
T2 construct: host or cells: HEK-Blue hTLR8 (HEK293-derived SEAP reporter cells)
T2 sequence (Q9NR97 27-1041): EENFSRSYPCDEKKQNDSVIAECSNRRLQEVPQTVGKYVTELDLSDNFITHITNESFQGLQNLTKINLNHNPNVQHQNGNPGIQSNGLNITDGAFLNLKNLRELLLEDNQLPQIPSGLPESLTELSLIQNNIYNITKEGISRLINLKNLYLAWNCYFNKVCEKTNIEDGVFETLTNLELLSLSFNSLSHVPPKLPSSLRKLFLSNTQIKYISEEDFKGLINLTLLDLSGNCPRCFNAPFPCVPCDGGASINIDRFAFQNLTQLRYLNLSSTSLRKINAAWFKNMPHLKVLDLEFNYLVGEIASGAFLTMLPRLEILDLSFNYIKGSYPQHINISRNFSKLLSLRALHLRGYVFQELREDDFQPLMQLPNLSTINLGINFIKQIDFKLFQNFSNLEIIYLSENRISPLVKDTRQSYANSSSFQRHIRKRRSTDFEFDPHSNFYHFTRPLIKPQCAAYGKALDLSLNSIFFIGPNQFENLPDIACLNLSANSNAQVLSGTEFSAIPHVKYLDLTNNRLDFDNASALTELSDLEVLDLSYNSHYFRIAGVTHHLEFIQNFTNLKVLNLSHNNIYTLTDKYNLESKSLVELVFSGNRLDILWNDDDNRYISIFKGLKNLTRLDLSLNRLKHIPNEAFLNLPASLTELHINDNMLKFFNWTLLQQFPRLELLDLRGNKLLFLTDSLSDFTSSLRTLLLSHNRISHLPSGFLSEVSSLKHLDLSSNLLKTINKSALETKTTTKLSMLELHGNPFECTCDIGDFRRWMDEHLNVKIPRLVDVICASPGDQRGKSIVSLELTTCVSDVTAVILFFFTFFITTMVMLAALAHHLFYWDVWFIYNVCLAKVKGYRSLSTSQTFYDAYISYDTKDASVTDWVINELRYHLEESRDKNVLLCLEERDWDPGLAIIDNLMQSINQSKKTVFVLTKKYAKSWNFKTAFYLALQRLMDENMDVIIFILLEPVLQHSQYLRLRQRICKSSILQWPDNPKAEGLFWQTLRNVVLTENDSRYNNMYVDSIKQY
Nature of the experiment: ssRNA40-induced signaling in HEK-Blue hTLR8 cell line. It counts as cell-based. The following applies: at a concentration of 100 μM (FIG. 12). As for the experimental part: HEK Blue hTLR8 cells or HEK Blue hTLR7 cells were cultured in DMEM medium supplemented with 10% fetal bovine serum, penicillin (100 U/mL) and streptomycin ([…]). Thereafter, cells were seeded in 96-well plate (45,000 cells per well), and were cultured for 24 hours in a humidified incubator (37° C., 5% CO2).
After 24 hours, the supernatant and suspending cells were aspirated and replaced with fresh serum-free DMEM. Cells were treated with 1 μg/mL of R848 (agonist of TLR7/8) or 5 μg/mL of ssRNA40/LyoVec or 5 μg/mL of ORN06/LyoVec (InvivoGen) and compounds with specified concentrations, and were placed in a humidified incubator (37° C., 5% CO2) for co-culture.
After 24 hours, 50 μL of the medium was aspirated from each well and then added to a new 96-well plate, followed by the addition of 50 μL of Quanti-Blue in each well and the incubation at 37° C. in darkness. Changes in color would occur in the […] within 60 minutes, and the absorbance was measured at 620 nm by using the multi-mode plate reader Vrioskan Flash. Inhibition rate (%)=[R848 (OD620)−Compound (OD620)]/[R848 (OD620)−Control (OD620)]×100%. Among these, the control group was only added with the same amount of cells. Finally, the software Prism 6.0 was utilized to plot a graph and calculate IC50 values. […]

`CCOCc1nc(I)c(-c2ccccc2)n1CC(C)(C)O` [Compound 53, 1-[2-(ethoxymethyl)-4-iodo-5-phenyl-1H-imidazole-1-yl]-2-methylpropan-2-ol]: the “TLR7 (normalized inhibitory effect on R848-induced signaling)” value in experiment [1] is given as 1.0 ± 0.2. For the same compound, in experiment [2], the “synergistic activating effect on ssRNA40-induced signaling” value was “synergistic activating effect”.
